Values belong to the compound of their own block, whether it stands above or below them. Square brackets hold non-standard residues; d marks the D form. Peptide text beside a SMILES is read from it. Tic = O=C(O)[C@@H]1Cc2ccccc2CN1; Abu = CC[C@H](N)C(=O)O
Assays:
[1] = target: SSTR2 (Homo sapiens, UniProt P30874); experiment: SSTR receptor binding affinity (Ki), SSTR2; settings: read-out: SSTR Specificity Ki SSTR2
[2] = system: medullary thyroid carcinoma primary cultures; experiment: Cell viability of MTC primary cultures (MTT); format: cell-based, human; settings: 10^−8 M, forty-eight hours; for cell viability, change vs. control (signed, negative = reduced): group B (lanreotide non-responsive) mean
Procedure: Primary cultured cells from 18 selected MTC samples were incubated in ninety six well plates for forty eight hours with each SSTR agonist at 10^−8 M. Control cells were treated with vehicle solution. Cell viability was measured by a colorimetric method among eight replicates from treated and untreated (control) primary cultured cells. […] Data are expressed as the mean±SE percent cell viability reduction vs. untreated control cells. *P<0.05, and **P<0.01 vs. control.
(§1) Tissue samples were surgically removed in accordance with the guidelines of the local comnmittees on human research. Thyroid tissue samples were obtained under sterile conditions and immediately minced in RPMI 1640 tissue culture medium. Tissues were incubated with 0.25% trypsin overnight at 4° C. and then dissociated using 0.35% collagenase (Sigma, Milano, ITALY) and 1% trypsin at 37° C. for sixty minutes. Cell suspensions were filtered through double layers of gaus(e and washed twice with serum-free F-12 Ham's Nutrient Modified Medium (F-12; Euroclone Ltd, Wetherby, UNITED KINGDOM). Tumor cells were re-suspended in F-12 with 10% fetal bovine serum and antibiotics, seeded in ninety-six well culture plates (˜2×10^4 cells/well) and incubated at 37° C. in a humidified atmosphere of 5% CO2 and 95% air according to known procedures (Zatelli, M. C. et al., Endocrinology, 2005, 146:2692-8). Approximately twenty-four hours later, the prepared cells were treated with the selected somatostatin agonist and were monitored for hormone secretion and overall viability. Informed consent of the patients was obtained for disclosing clinical investigation and performing the in vitro study.
The effects of the tested somatostatin analogs on medullary thyroid carcinoma primary culture cell viability were assessed with a Cell Proliferation Kit I MTT® (Roche Diagnostics GmbH, Mannheim, GERMANY) which employs a colorimetric method for determining the number of viable cells in proliferation assays. Primary cultured cells were plated in ninety-six multiwell plates (2×10^4 cells/well) and incubated for forty-eight hours in a medium supplemented with 10% fetal bovine serum in the presence or absence of each somatostatin analog at 10^−8M. Treatments were renewed after the first twenty-four hours of incubation.
In order to investigate the effects of somatostatin analogs on medullary thyroid carcinoma cell viability, an MTT assay was performed in primary cultures derived from the eighteen selected medullary thyroid carcinoma samples, treated with or without each somatostatin analog at […] for forty-eight hours. Percent cell viability reduction compared to a control in each primary culture under treatment with each somatostatin analog is reported in Table 6.

[3] = target: SSTR3 (Homo sapiens, UniProt P32745); experiment: SSTR receptor binding affinity (Ki), SSTR3; settings: read-out: SSTR Specificity Ki SSTR3
Sequence of SSTR3 (P32745 whole entry): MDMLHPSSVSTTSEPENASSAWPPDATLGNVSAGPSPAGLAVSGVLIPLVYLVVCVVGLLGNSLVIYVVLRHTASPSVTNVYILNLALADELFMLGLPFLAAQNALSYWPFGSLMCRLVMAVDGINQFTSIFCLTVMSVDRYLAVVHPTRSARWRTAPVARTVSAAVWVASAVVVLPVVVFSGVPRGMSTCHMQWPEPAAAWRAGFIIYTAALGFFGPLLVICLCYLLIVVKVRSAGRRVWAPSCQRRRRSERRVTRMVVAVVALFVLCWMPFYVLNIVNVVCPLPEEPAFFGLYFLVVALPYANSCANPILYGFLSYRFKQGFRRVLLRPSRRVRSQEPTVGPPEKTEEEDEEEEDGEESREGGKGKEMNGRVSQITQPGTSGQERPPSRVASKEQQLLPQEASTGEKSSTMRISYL

[4] = target: SSTR4 (Homo sapiens, UniProt P31391); experiment: SSTR receptor binding affinity (Ki), SSTR4; settings: read-out: SSTR Specificity Ki SSTR4
Sequence of SSTR4 (P31391 whole entry): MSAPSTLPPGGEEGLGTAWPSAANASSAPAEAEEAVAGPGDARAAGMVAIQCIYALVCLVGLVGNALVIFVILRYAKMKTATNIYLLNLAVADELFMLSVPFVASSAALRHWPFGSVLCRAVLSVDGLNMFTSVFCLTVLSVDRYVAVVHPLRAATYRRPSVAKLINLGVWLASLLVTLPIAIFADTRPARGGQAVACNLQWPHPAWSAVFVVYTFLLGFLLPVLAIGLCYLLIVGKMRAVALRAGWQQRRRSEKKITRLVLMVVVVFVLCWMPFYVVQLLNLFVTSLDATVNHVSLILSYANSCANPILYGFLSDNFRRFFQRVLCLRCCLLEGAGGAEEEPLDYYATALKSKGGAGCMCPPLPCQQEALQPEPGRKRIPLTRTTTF

[5] = target: SSTR5 (Homo sapiens, UniProt P35346); experiment: SSTR receptor binding affinity (Ki), SSTR5; settings: read-out: SSTR Specificity Ki SSTR5
Sequence of SSTR5 (P35346 whole entry): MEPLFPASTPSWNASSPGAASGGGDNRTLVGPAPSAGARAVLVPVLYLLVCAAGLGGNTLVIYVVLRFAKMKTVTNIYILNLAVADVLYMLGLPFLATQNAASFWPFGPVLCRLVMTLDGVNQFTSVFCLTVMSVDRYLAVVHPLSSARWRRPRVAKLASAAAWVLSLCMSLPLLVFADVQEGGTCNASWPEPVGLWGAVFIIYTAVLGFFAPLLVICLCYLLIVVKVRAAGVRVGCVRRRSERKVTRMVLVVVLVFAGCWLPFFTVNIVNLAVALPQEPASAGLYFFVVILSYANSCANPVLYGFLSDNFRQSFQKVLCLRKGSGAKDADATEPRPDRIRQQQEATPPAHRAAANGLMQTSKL

[6] = target: SSTR1 (Homo sapiens, UniProt P30872); experiment: SSTR receptor binding affinity (Ki), SSTR1; settings: read-out: SSTR Specificity Ki SSTR1
Sequence of SSTR1 (P30872 whole entry): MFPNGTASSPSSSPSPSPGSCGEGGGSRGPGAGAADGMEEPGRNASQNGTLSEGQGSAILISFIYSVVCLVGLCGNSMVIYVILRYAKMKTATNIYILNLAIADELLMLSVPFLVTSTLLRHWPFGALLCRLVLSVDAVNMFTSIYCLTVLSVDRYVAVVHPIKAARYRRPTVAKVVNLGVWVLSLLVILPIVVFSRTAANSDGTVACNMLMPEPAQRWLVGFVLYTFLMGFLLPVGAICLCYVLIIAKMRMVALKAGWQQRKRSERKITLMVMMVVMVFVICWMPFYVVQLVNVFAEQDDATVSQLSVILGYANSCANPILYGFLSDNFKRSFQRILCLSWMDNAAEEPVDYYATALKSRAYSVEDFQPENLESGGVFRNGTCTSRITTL

[7] = system: medullary thyroid carcinoma primary cultures; experiment: Calcitonin secretion by MTC primary cultures (IRMA); format: cell-based, human; settings: 10^−8 M, six hours
Procedure: Primary cultured cells from 18 selected MTC samples were incubated in ninety six well plates for six hours with each SSTR agonist at 10^−8 M. Control cells were treated with vehicle solution. Calcitonin levels in the conditioned medium were measured by immunoradiometric assay (IRMA) among eight replicates in the conditioned medium from treated and untreated (control) primary cultured cells. […] Data are expressed as the mean±SE percent hormone secretion inhibition vs. untreated control cells. *P<0.05 and **P<0.01 vs. control.
as §1
Calcitonin levels were measured in a conditioned medium from treated and untreated primary cultured cells with the calcitonin-U.S.-IRMA® kit (Biosource Europe, Nivelles, BELGIUM) after a six hour treatment with […] of the selected somatostatin analogs. The intra- and inter-assay variation coefficients were 1.9-2.7% and 1.9-3.3%, respectively. The detection limit was 0.8 pg/ml. Hormone assays were performed in duplicate of conditioned medium from treated cells. Results were obtained by determining the mean value among eight replicates.
In order to investigate the effects of somatostatin analogs on hormone secretion, calcitonin and CgA levels were measured in conditioned media collected from primary cultures derived from the selected eighteen medullary thyroid carcinoma treated with or without each somatostatin analog at 10^−8M for six hours.
According to this criterion, […] as “responders” (group A: primary cultures #3, #5, #6, #7, #11, #12, #13, #14, #15, #16) and nine as “non responders” (group B: primary cultures #1, #2, #4, #8, #9, #10, #17, #18).

[8] = MTC primary culture #1 (non responder)
[9] = MTC primary culture #2 (non responder)
[10] = MTC primary culture #3 (responder)
[11] = MTC primary culture #4 (non responder)
[12] = MTC primary culture #5 (responder)
[13] = MTC primary culture #6 (responder)
[14] = MTC primary culture #7 (responder)
[15] = MTC primary culture #8 (non responder)
[16] = MTC primary culture #9 (non responder)
[17] = MTC primary culture #10 (non responder)
[18] = MTC primary culture #11 (responder)
[19] = MTC primary culture #12 (responder)
[20] = MTC primary culture #13 (responder)
[21] = MTC primary culture #14 (responder)
[22] = MTC primary culture #15 (responder)
[23] = MTC primary culture #16 (responder)
[24] = MTC primary culture #17 (non responder)
[25] = MTC primary culture #18 (non responder)
[26] = group A (lanreotide responsive) mean
[27] = group B (lanreotide non-responsive) mean

Sequence of SSTR2 (P30874 whole entry): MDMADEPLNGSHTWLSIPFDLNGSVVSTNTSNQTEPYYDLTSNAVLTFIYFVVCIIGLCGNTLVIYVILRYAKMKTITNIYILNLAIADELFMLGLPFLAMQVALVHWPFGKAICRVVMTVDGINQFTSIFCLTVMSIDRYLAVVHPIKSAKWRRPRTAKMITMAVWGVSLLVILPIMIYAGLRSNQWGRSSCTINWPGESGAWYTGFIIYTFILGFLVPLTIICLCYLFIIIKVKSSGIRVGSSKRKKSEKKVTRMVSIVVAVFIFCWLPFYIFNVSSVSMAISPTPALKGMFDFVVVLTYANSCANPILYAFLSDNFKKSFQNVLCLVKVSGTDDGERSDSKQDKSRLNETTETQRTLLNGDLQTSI

Ki [1]: 0.34 nM | Ki [3]: 412 nM | Ki [4]: 1000 nM | Ki [5]: 214 nM | Ki [6]: 1000 nM
SMILES: CC[C@@H]1NC(=O)[C@H](CCCCN)NC(=O)[C@@H](Cc2c[nH]c3ccccc23)NC(=O)[C@H](Cc2ccc(O)cc2)NC(=O)[C@@H]2Cc3ccccc3CN2C(=O)[C@H](Cc2ccccc2)NC1=O [Cmpd #2, c[Tic-Tyr-D-Trp-Lys-Abu-Phe]] (cyclo([Tic]Y[dW]K[Abu]F))
% cell viability reduction vs. control [2, 8]: −5.0% | % cell viability reduction vs. control [2, 9]: −56.4% | % cell viability reduction vs. control [2, 10]: −3.2% | % cell viability reduction vs. control [2, 11]: −17.9% | % cell viability reduction vs. control [2, 12]: −8.6% | % cell viability reduction vs. control [2, 13]: 3.2% | % cell viability reduction vs. control [2, 14]: 54.4% | % cell viability reduction vs. control [2, 15]: −15.3% | % cell viability reduction vs. control [2, 16]: −8.8% | % cell viability reduction vs. control [2, 17]: 12.1% | % cell viability reduction vs. control [2, 18]: −0.4% | % cell viability reduction vs. control [2, 19]: 15.8% | % cell viability reduction vs. control [2, 20]: −5.3% | % cell viability reduction vs. control [2, 21]: 8.2% | % cell viability reduction vs. control [2, 22]: 5.6% | % cell viability reduction vs. control [2, 23]: −3.0% | % cell viability reduction vs. control [2, 24]: −10.3% | % cell viability reduction vs. control [2, 25]: −20.6% | cell viability, change vs. control (signed, negative = reduced) [2]: −13% | % CT secretion inhibition vs. control [7, 8]: −6.1% | % CT secretion inhibition vs. control [7, 9]: −4.3% | % CT secretion inhibition vs. control [7, 10]: −36.0% | % CT secretion inhibition vs. control [7, 11]: 8.9% | % CT secretion inhibition vs. control [7, 12]: −8.6% | % CT secretion inhibition vs. control [7, 13]: −5.7% | % CT secretion inhibition vs. control [7, 14]: −51.3% | % CT secretion inhibition vs. control [7, 15]: −2.6% | % CT secretion inhibition vs. control [7, 16]: 6.7% | % CT secretion inhibition vs. control [7, 17]: 11.6% | % CT secretion inhibition vs. control [7, 18]: 10.3% | % CT secretion inhibition vs. control [7, 19]: −12.4% | % CT secretion inhibition vs. control [7, 20]: −48.6% | % CT secretion inhibition vs. control [7, 21]: 1.6% | % CT secretion inhibition vs. control [7, 22]: −22.9% | % CT secretion inhibition vs. control [7, 23]: −31.7% | % CT secretion inhibition vs. control [7, 24]: −2.6% | % CT secretion inhibition vs. control [7, 25]: −1.5% | calcitonin secretion, change vs. control (signed, negative = reduced) [7, 26]: −23% | calcitonin secretion, change vs. control (signed, negative = reduced) [7, 27]: not reduced

Ki [1]: 166 nM | Ki [3]: 1000 nM | Ki [5]: 2.4 nM | Ki [6]: 1150 nM
SMILES: C[C@@H](O)[C@H](NC(=O)[C@H](Cc1ccccc1)NC(=O)[C@@H](NC(=O)[C@H](CCCCN)NC(=O)[C@@H](Cc1c[nH]c2ccccc12)NC(=O)[C@H](Cc1c[nH]c2ccccc12)NC(=O)[C@H](Cc1ccccc1)NC(=O)[C@H](N)Cc1ccccc1)[C@@H](C)O)C(N)=O [Cmpd #3, D-Phe-Phe-Trp-D-Trp-Lys-Thr-Phe-Thr-NH2]
% cell viability reduction vs. control [2, 8]: 30.8% | % cell viability reduction vs. control [2, 9]: −72.5% | % cell viability reduction vs. control [2, 10]: 0.4% | % cell viability reduction vs. control [2, 11]: 4.8% | % cell viability reduction vs. control [2, 12]: −5.3% | % cell viability reduction vs. control [2, 13]: 2.4% | % cell viability reduction vs. control [2, 14]: 4.2% | % cell viability reduction vs. control [2, 15]: −0.3% | % cell viability reduction vs. control [2, 16]: 3.6% | % cell viability reduction vs. control [2, 17]: 2.3% | % cell viability reduction vs. control [2, 18]: −1.0% | % cell viability reduction vs. control [2, 19]: −11.3% | % cell viability reduction vs. control [2, 20]: 7.2% | % cell viability reduction vs. control [2, 21]: 6.0% | % cell viability reduction vs. control [2, 22]: 5.2% | % cell viability reduction vs. control [2, 23]: −5.8% | % cell viability reduction vs. control [2, 24]: −8.7% | % cell viability reduction vs. control [2, 25]: −3.8% | cell viability, change vs. control (signed, negative = reduced) [2]: neither affected | % CT secretion inhibition vs. control [7, 8]: −16.6% | % CT secretion inhibition vs. control [7, 9]: 18.2% | % CT secretion inhibition vs. control [7, 10]: −36.5% | % CT secretion inhibition vs. control [7, 11]: 5.3% | % CT secretion inhibition vs. control [7, 12]: −17.5% | % CT secretion inhibition vs. control [7, 13]: −25.8% | % CT secretion inhibition vs. control [7, 14]: −34.6% | % CT secretion inhibition vs. control [7, 15]: −7.5% | % CT secretion inhibition vs. control [7, 16]: −1.6% | % CT secretion inhibition vs. control [7, 17]: 15.6% | % CT secretion inhibition vs. control [7, 18]: −76.2% | % CT secretion inhibition vs. control [7, 19]: −9.3% | % CT secretion inhibition vs. control [7, 20]: −43.2% | % CT secretion inhibition vs. control [7, 21]: 9.5% | % CT secretion inhibition vs. control [7, 22]: 7.8% | % CT secretion inhibition vs. control [7, 23]: −17.4% | % CT secretion inhibition vs. control [7, 24]: 7.4% | % CT secretion inhibition vs. control [7, 25]: 13.6% | calcitonin secretion reduced / inhibited by ([7]; group A (lanreotide responders) mean): 28% | calcitonin secretion, change vs. control (signed, negative = reduced) [7, 26]: −28% | calcitonin secretion, change vs. control (signed, negative = reduced) [7, 27]: not reduced

SMILES: CCCN1C[C@H](CSCC(=O)NCCCC[C@@H](NC(=O)CSC[C@@H]2C[C@@H]3c4cccc5[nH]cc(c45)C[C@H]3N(CCC)C2)C(=O)N[C@H]2CSSC[C@@H](C(=O)N[C@H](C(N)=O)[C@@H](C)O)NC(=O)[C@H](CC)NC(=O)[C@H](CCCCN)NC(=O)[C@@H](Cc3c[nH]c4ccccc34)NC(=O)[C@H](Cc3ccc(O)cc3)NC2=O)C[C@@H]2c3cccc4[nH]cc(c34)C[C@H]21 [Dop2-D-Lys(Dop2)-c[Cys-Tyr-D-Trp-Lys-Abu-Cys]-Thr-NH2]
Ki [5]: 41.5 nM
